Data on 25 compounds can be found in patent US10173971B2, “Picolinamides with fungicidal activity” (DOW AGROSCIENCES LLC, priority 2014, dated 2019).

Read-outs that look alike come from different tables or passages of the source.

One test deals with Puccinia triticina. Nature of the test: Fungicidal activity: wheat brown rust (PUCCRT), wheat seedlings, booth sprayer to run-off or track spray. In kind it is in vivo. Particulars: for pest or weed control at 100 ppm: High-Volume Cereal Activity at 100 ppm; for pest or weed control at 121.5 g/ha: Low-Volume Cereal Activity at 121.5 g/H. How it is done:
All fungicides were evaluated using the aforementioned method for their activity vs. all target diseases. Wheat leaf blotch and brown rust activity were also evaluated using track spray applications, in which case the fungicides were formulated as EC formulations, containing 0.1% Trycol 5941 in the spray solutions. Wheat plants (variety Yuma) were grown from seed in a greenhouse in 50% mineral soil/50% soil-less Metro mix until the first leaf was fully emerged, with 7-10 seedlings per pot. These plants were inoculated with an aqueous spore suspension of Puccinia triticina either prior to or after fungicide treatments. […] The plants were then transferred to a greenhouse set at 24° C. for disease to develop. Fungicide formulation, application and disease assessment followed the procedures as described in the Example A.

A further test has as its system Zymoseptoria tritici. Nature of the test: Fungicidal activity: leaf blotch of wheat (SEPTTR), wheat seedlings, booth sprayer to run-off or track spray. In kind it is in vivo. Particulars: for pest or weed control at 100 ppm: High-Volume Cereal Activity at 100 ppm; for pest or weed control at 121.5 g/ha: Low-Volume Cereal Activity at 121.5 g/H. As to the method:
All fungicides were evaluated using the aforementioned method for their activity vs. all target diseases. Wheat leaf blotch and brown rust activity were also evaluated using track spray applications, in which case the fungicides were formulated as EC formulations, containing 0.1% Trycol 5941 in the spray solutions. Wheat plants (variety Yuma) were grown from seed in a greenhouse in 50% mineral soil/50% soil-less Metro mix until the first leaf was fully emerged, with 7-10 seedlings per pot. These plants were inoculated with an aqueous spore suspension of Zymoseptoria tritici either prior to or after fungicide treatments. After inoculation the plants were kept in 100% relative humidity (one day in a dark dew chamber followed by two to three days in a lighted dew chamber at 20° C.) to permit spores to germinate and infect the leaf. The plants were then transferred to a greenhouse set at 20° C. for disease to develop. When disease symptoms were fully expressed on the 1st leaves of untreated plants, infection levels were assessed on a scale of 0 to 100 percent disease severity. Percent disease control was calculated using the ratio of disease severity on treated plants relative to untreated plants.

Where [1] appears, read: 24 h, 1 Day Protectant, read-out: PUCCRT 1DP.
[2] abbreviates: 3DC (Day Curative), read-out: PUCCRT 3DC.
Setting [3] is: 24 h, 1 Day Protectant, read-out: SEPTTR 1DP.
Where [4] appears, read: 3DC (Day Curative), read-out: SEPTTR 3DC.
The mark [5] stands for this setting: 72 h, 3 Day Curative, read-out: PUCCRT 3DC.
Where [6] appears, read: 72 h, 3 Day Curative, read-out: SEPTTR 3DC.

Regarding `CCCC[C@@H]([C@H](C)OC(=O)[C@H](C)NC(=O)c1nccc(OC)c1O)[C@@H](CC)Oc1ccccc1` [compound 116], the pest or weed control at 100 ppm is 0 to 80% in the test on Puccinia triticina (setting [1]), 80 to 100% in the test on Puccinia triticina (setting [2]), 0 to 80% with Zymoseptoria tritici (setting [3]) and 0 to 80% in the test on Zymoseptoria tritici (setting [4]).
Regarding `COc1ccnc(C(=O)N[C@@H](C)C(=O)O[C@@H](C)[C@H](Cc2ccc(F)cc2)C(C)(C)OCc2ccc(F)cc2)c1OCOC(C)=O` [compound 250], the pest or weed control at 121.5 g/ha in the test with Puccinia triticina (setting [1]), in the test on Puccinia triticina (setting [5]) and in the test on Zymoseptoria tritici (setting [3]) was 0 to 80% each time.
As to `C=C[C@H](Cc1ccc(C(F)(F)F)cc1)[C@@H](Cc1ccc(F)cc1)[C@H](C)OC(=O)[C@H](C)NC(=O)c1nccc(OC)c1O` [compound 108], the pest or weed control at 100 ppm in the test with Puccinia triticina (setting [1]) was 80 to 100%; with Zymoseptoria tritici (setting [4]) it was 0 to 80%.
On to `COC(=O)[C@@H](Cc1ccccc1)[C@H](C)OC(=O)[C@H](C)NC(=O)c1nccc(OC)c1OCOC(C)=O` [compound 185], for which the pest or weed control at 121.5 g/ha in the test with Puccinia triticina (setting [1]), in the test on Puccinia triticina (setting [5]) and in the test on Zymoseptoria tritici (setting [3]) was 0 to 80% each time.
For `CCOCC(=O)OCOc1c(OC)ccnc1C(=O)N[C@@H](C)C(=O)O[C@@H](C)[C@H](Cc1ccc(F)cc1)C(C)(C)OCc1ccccc1` [compound 235], the pest or weed control at 121.5 g/ha in the test on Puccinia triticina (setting [1]) is 80 to 100%; in the test with Puccinia triticina (setting [5]), 0 to 80%; with Zymoseptoria tritici (setting [3]) it was 80 to 100%; in the test with Zymoseptoria tritici (setting [6]), 0 to 80%.
As to `CC[C@H](Cc1ccc(C(F)(F)F)cc1)[C@@H](Cc1ccc(F)cc1)[C@H](C)OC(=O)[C@H](C)NC(=O)c1nccc(OC)c1O` [compound 284], the pest or weed control at 100 ppm lay within 80 to 100% in the test with Puccinia triticina (setting [1]), 80 to 100% in the test with Puccinia triticina (setting [2]) and 0 to 80% in the test with Zymoseptoria tritici (setting [3]).
In the case of `CCCOC[C@@H](Cc1ccccc1)[C@H](C)OC(=O)C(C)(C)NC(=O)c1nccc(OC)c1OCOC(C)=O` [compound 171], the pest or weed control at 100 ppm with Puccinia triticina (setting [2]), in the test on Zymoseptoria tritici (setting [3]) and in the test on Zymoseptoria tritici (setting [4]) was 0 to 80% in each case.
For `CC[C@H](Oc1ccccc1)[C@@H](Cc1ccccc1)[C@H](C)OC(=O)[C@H](C)NC(=O)c1nccc(OC)c1OC(C)=O` [compound 193], the pest or weed control at 121.5 g/ha with Puccinia triticina (setting [1]) was 80 to 100%; in the test on Puccinia triticina (setting [5]), 80 to 100%; in the test on Zymoseptoria tritici (setting [3]), 80 to 100%; with Zymoseptoria tritici (setting [6]), 0 to 80%.
As for `COc1ccnc(C(=O)N[C@@H](C)C(=O)O[C@@H](C)[C@H](Cc2ccc(Cl)cc2)c2ccccc2)c1OCOC(C)=O` [compound 203], the pest or weed control at 121.5 g/ha in the test on Puccinia triticina (setting [1]) fell in the range of 80 to 100%; with Puccinia triticina (setting [5]), 0 to 80%; in the test on Zymoseptoria tritici (setting [3]), 80 to 100%; in the test on Zymoseptoria tritici (setting [6]), 80 to 100%.
As to `CC[C@H](CCCc1ccccc1)[C@@H](CC(C)C)[C@H](C)OC(=O)C(C)NC(=O)c1nccc(OC)c1OC(C)=O` (stereo partly shown) [compound 172], the pest or weed control at 121.5 g/ha was 80 to 100% in the test on Puccinia triticina (setting [1]), 0 to 80% with Puccinia triticina (setting [5]), 0 to 80% in the test with Zymoseptoria tritici (setting [3]) and 0 to 80% in the test on Zymoseptoria tritici (setting [6]).
As to `CCCC[C@H](c1ccccc1)[C@H](C)OC(=O)[C@H](C)NC(=O)c1nccc(OC)c1O` [compound 120], the pest or weed control at 100 ppm in the test on Puccinia triticina (setting [2]) and in the test with Zymoseptoria tritici (setting [4]) was 0 to 80% in each case.
For `COc1ccnc(C(=O)N[C@@H](C)C(=O)O[C@@H](C)[C@H](CCC(C)C)c2ccccc2)c1OC(=O)C(C)C` [compound 211], the figures for the pest or weed control at 121.5 g/ha in the test on Puccinia triticina (setting [1]), with Zymoseptoria tritici (setting [3]) and with Zymoseptoria tritici (setting [6]) were 0 to 80%, 80 to 100% and 80 to 100%, respectively.
On to `CCOCC(=O)OCOc1c(OC)ccnc1C(=O)N[C@@H](C)C(=O)O[C@@H](C)[C@@H](COCc1ccccc1)Cc1ccccc1` [compound 234], for which the pest or weed control at 121.5 g/ha in the test with Puccinia triticina (setting [1]) lay within 80 to 100%; with Puccinia triticina (setting [5]), 80 to 100%; with Zymoseptoria tritici (setting [3]), 0 to 80%; in the test on Zymoseptoria tritici (setting [6]) it was 80 to 100%.
Regarding `COC[C@@H](Cc1ccc(F)cc1)[C@H](C)OC(=O)[C@H](C)NC(=O)c1nccc(OC)c1O` [compound 135], the pest or weed control at 100 ppm in the test on Puccinia triticina (setting [1]) is 80 to 100%; in the test on Puccinia triticina (setting [2]), 0 to 80%; in the test with Zymoseptoria tritici (setting [3]) it was 0 to 80%; in the test with Zymoseptoria tritici (setting [4]) it was 0 to 80%.
Consider `COc1ccnc(C(=O)N[C@@H](C)C(=O)O[C@@H](C)[C@H](Cc2ccc(Cl)c(Cl)c2)c2ccccc2)c1OCOC(=O)C(C)C` [compound 219], for which the pest or weed control at 121.5 g/ha with Puccinia triticina (setting [1]), with Puccinia triticina (setting [5]), with Zymoseptoria tritici (setting [3]) and in the test on Zymoseptoria tritici (setting [6]) was 0 to 80% each time.
Turning to `CCCC[C@@H]([C@H](C)OC(=O)[C@H](C)NC(=O)c1nccc(OC)c1O)[C@H](CC)Oc1ccccc1` [compound 115], the pest or weed control at 100 ppm in the test on Puccinia triticina (setting [1]), with Puccinia triticina (setting [2]) and in the test with Zymoseptoria tritici (setting [4]) was 80 to 100% in each case.
As to `COc1ccnc(C(=O)N[C@@H](C)C(=O)O[C@@H](C)[C@H](CCC(C)C)c2ccccc2)c1OC(C)=O` [compound 210], the pest or weed control at 121.5 g/ha in the test with Puccinia triticina (setting [1]) fell in the range of 80 to 100%; in the test with Puccinia triticina (setting [5]), 0 to 80%; in the test with Zymoseptoria tritici (setting [3]) it was 80 to 100%; in the test on Zymoseptoria tritici (setting [6]) it was 80 to 100%.
For the compound `COc1ccnc(C(=O)N[C@@H](C)C(=O)O[C@@H](C)[C@H](Cc2ccc(Cl)cc2)c2ccccc2)c1O` [compound 121], the pest or weed control at 100 ppm was in the range of 80 to 100% in the test on Puccinia triticina (setting [1]), 0 to 80% in the test on Puccinia triticina (setting [2]), 80 to 100% in the test with Zymoseptoria tritici (setting [3]) and 0 to 80% in the test with Zymoseptoria tritici (setting [4]).
As to `CCCO[C@@H](CC)[C@@H](Cc1ccccc1)[C@H](C)OC(=O)[C@@H](C)NC(=O)c1nccc(OC)c1O` [compound 94], the pest or weed control at 100 ppm in the test on Puccinia triticina (setting [1]) is 80 to 100%; in the test on Puccinia triticina (setting [2]), 80 to 100%; with Zymoseptoria tritici (setting [3]), 0 to 80%; with Zymoseptoria tritici (setting [4]), 0 to 80%.
For the compound `COc1cccc(CC(Cc2cccc(OC)c2)[C@H](C)OC(=O)[C@H](C)NC(=O)c2nccc(OC)c2OCOC(C)=O)c1` [compound 274], the pest or weed control at 121.5 g/ha in the test on Puccinia triticina (setting [1]) was in the range of 80 to 100%; with Puccinia triticina (setting [5]) it was 0 to 80%; in the test with Zymoseptoria tritici (setting [3]), 0 to 80%.
Take `COc1ccnc(C(=O)N[C@@H](C)C(=O)O[C@@H](C)[C@@H](COCc2ccccc2)Cc2ccccc2)c1O` [compound 132]: the pest or weed control at 100 ppm with Puccinia triticina (setting [1]) lay in the range of 80 to 100%; in the test with Puccinia triticina (setting [2]), 80 to 100%; in the test on Zymoseptoria tritici (setting [3]), 0 to 80%; with Zymoseptoria tritici (setting [4]), 80 to 100%.
Take `CCCOC[C@@H](Cc1ccccc1)[C@H](C)OC(=O)[C@H](CC)NC(=O)c1nccc(OC)c1OCOC(C)=O` [compound 167]: the pest or weed control at 100 ppm in the test on Puccinia triticina (setting [1]), with Puccinia triticina (setting [2]), with Zymoseptoria tritici (setting [3]) and in the test with Zymoseptoria tritici (setting [4]) was 80 to 100% throughout. Moreover, the pest or weed control at 121.5 g/ha was in the range of 80 to 100% with Puccinia triticina (setting [1]), 80 to 100% in the test with Puccinia triticina (setting [5]), 80 to 100% in the test on Zymoseptoria tritici (setting [3]) and 0 to 80% in the test on Zymoseptoria tritici (setting [6]).
Regarding `CC[C@H](Cc1ccccc1)[C@@H](Cc1ccc(OC(F)(F)F)cc1)[C@H](C)OC(=O)[C@H](C)NC(=O)c1nccc(OC)c1OCOC(C)=O` [compound 187], the pest or weed control at 121.5 g/ha in the test on Puccinia triticina (setting [1]), in the test on Puccinia triticina (setting [5]), with Zymoseptoria tritici (setting [3]) and with Zymoseptoria tritici (setting [6]) was 0 to 80% each time.
Regarding `CCOC[C@H](Oc1ccc(C)cc1)[C@@H](Cc1ccc(F)cc1)[C@H](C)OC(=O)[C@H](C)NC(=O)c1nccc(OC)c1O` [compound 105], the pest or weed control at 100 ppm in the test with Puccinia triticina (setting [1]) is 80 to 100%; with Puccinia triticina (setting [2]), 0 to 80%; in the test with Zymoseptoria tritici (setting [3]), 0 to 80%; with Zymoseptoria tritici (setting [4]), 0 to 80%.
On to `CCCO[C@@H](CC)[C@@H](Cc1ccccc1)[C@H](C)OC(=O)[C@H](C)NC(=O)c1nccc(OC)c1OCOC(C)=O` [compound 168], for which the pest or weed control at 100 ppm with Puccinia triticina (setting [1]), in the test on Puccinia triticina (setting [2]), with Zymoseptoria tritici (setting [3]) and in the test with Zymoseptoria tritici (setting [4]) was 80 to 100% throughout. For the same compound, the pest or weed control at 121.5 g/ha in the test with Puccinia triticina (setting [1]) is 80 to 100%; with Puccinia triticina (setting [5]), 80 to 100%; in the test on Zymoseptoria tritici (setting [3]), 80 to 100%; with Zymoseptoria tritici (setting [6]) it was 0 to 80%.
